From ChEMBL document CHEMBL1155398, “Design and evaluation of Trypanosoma brucei metacaspase inhibitors” (Bioorg Med Chem Lett, 2010)
Active and inactive are the calls of the source. The calls are words filed in the database; no cut-off is given here.

How the values were obtained:
MRC5 = experiment: Cytotoxicity against human MRC5 cells; format: cell-based
Leishmania infantum = experiment: Antiparasitic activity against Leishmania infantum amastigotes; format: functional, organism-based
Trypanosoma cruzi = experiment: Antiparasitic activity against Trypanosoma cruzi amastigotes; format: functional, organism-based
Plasmodium falciparum = experiment: Antiparasitic activity against Plasmodium falciparum ring stage and schizont; format: functional, organism-based
Metacaspase-2 = biological target: T1, Metacaspase-2 (Trypanosoma brucei, UniProt Q8T8E7); experiment: Inhibition of Trypanosoma brucei MAC2
T1 sequence (Q8T8E7 whole entry): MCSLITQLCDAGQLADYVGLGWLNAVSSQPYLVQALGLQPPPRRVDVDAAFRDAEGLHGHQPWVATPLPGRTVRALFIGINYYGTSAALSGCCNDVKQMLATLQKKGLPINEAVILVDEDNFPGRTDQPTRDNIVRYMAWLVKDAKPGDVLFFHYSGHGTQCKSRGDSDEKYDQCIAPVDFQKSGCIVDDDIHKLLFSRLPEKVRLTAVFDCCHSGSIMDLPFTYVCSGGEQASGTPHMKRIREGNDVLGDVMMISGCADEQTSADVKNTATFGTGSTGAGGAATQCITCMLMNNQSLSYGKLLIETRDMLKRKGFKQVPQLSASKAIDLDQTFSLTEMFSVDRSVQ

[1] = test system: Trypanosoma brucei brucei; experiment: Antiparasitic activity against Trypanosoma brucei brucei bloodstream form; format: functional, organism-based
Caspase-3 (Homo sapiens) = biological target: T2, Caspase-3 (Homo sapiens) (UniProt P42574); experiment: Inhibition of human caspase 3
T2 sequence (whole entry): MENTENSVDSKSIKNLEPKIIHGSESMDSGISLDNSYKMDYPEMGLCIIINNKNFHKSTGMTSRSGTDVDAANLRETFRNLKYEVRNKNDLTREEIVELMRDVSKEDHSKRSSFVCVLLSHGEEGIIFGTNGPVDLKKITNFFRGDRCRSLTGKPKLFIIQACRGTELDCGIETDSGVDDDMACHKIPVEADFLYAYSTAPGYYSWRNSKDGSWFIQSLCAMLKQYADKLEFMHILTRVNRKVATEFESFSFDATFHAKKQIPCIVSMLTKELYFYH

[2] = biological target: T3, Metacaspase-3 (Trypanosoma brucei) (UniProt Q8T8E6); experiment: Inhibition of Trypanosoma brucei MAC3
T3 sequence (whole entry): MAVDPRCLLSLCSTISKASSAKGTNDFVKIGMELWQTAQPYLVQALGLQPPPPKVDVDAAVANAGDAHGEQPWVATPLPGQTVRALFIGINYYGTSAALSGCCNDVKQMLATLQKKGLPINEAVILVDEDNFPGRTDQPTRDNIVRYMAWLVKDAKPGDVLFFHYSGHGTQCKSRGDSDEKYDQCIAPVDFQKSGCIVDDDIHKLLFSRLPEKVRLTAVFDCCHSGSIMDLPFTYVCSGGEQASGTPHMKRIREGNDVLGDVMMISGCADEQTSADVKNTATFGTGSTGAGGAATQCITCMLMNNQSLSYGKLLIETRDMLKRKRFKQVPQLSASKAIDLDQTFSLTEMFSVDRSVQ

SMILES	IC50 (MRC5) [µM]	IC50 (Leishmania infantum) [µM]	IC50 (Trypanosoma cruzi) [µM]	IC50 (Plasmodium falciparum) [µM]	IC50 (Metacaspase-2) [µM]	IC50 [1] [µM]	inhibition (Caspase-3 (Homo sapiens))	inhibition [2]
N=C(N)NCCC[C@@H](/C=C/S(=O)(=O)c1ccccc1)NC(=O)OCc1ccccc1	> 64	> 64	19	3.4	3.9	45.3		
N#CCN(CCCCn1ccnc1)C(=O)OCc1ccccc1	> 64	> 64	35.7	17.2	> 100	> 64		
N=C(N)NCCC[C@H](NC(=O)OCc1ccccc1)C(=O)c1nc2ccccc2s1	> 64	> 64	20.9	8	0.6	32.9	inactive	Active
NCCCC[C@H](NC(=O)OCc1ccccc1)C(=O)c1nc2ccccc2s1	20	22.8	10.8	3	1.6	10.6		
N#C[C@H](Cc1ccc(NC(=N)N)cc1)NC(=O)OCc1ccccc1	> 64	> 64	27.2	25.4	> 100	> 64		
N#CCN(CCCCN1CCCCC1)C(=O)OCc1ccccc1	> 64	> 64	> 64	6.9	> 100	> 64		
N=C(N)NCCC[C@H](NC(=O)OCc1ccccc1)C(=O)c1ccccn1	> 64	> 64	> 64	> 64	62	> 64		Active
N=C(N)NCCC[C@H](NC(=O)OCc1ccccc1)C(=O)c1nccs1	> 64	> 64	38.7	24.7	2.2	> 64		Active
N#CCN(C(=O)OCc1ccccc1)C1CCNCC1	> 64	> 64	34.6	28	> 100	32.5		
N#CCN(CCCCO)C(=O)OCc1ccccc1	> 64	> 64	> 64	> 64	> 100	> 64		
N#CCN(CCCCN1CCCC1)C(=O)OCc1ccccc1	> 64	> 64	> 64	20.5	> 100	52.1		
N#C[C@H](Cc1ccc(N)cc1)NC(=O)OCc1ccccc1	> 64	> 64	28.6	16.6	> 100	30.3		
CC(C)C(NC(=O)OCc1ccccc1)C(=O)N[C@@H](CCCNC(=N)N)C(=O)c1nc2ccccc2s1 (some centres not stated)	32.6	> 64	7.3	3.3	1.1	11.2		
N#C[C@H](CCCNC(=N)N)NC(=O)OCc1ccccc1	> 64	> 64	> 64	50.2	1.9	> 64	inactive	Active
Cn1c(C(=O)[C@H](CCCNC(=N)N)NC(=O)OCc2ccccc2)nc2ccccc21	> 64	> 64	28.3	7.1	38.4	32.5	inactive	Active
NC(N)=NCCCC[C@H](NC(=O)OCc1ccccc1)C(=O)c1nc2ccccc2s1	19	45.4	5.5	5.6	4	11.4		
CC(C)CC(NC(=O)OCc1ccccc1)C(=O)N[C@@H](CCCNC(=N)N)C(=O)c1nc2ccccc2s1 (some centres not stated)	29	36.8	5.6	2.6	1.4	5.7		
N#CCN(CCCCN1CCN(c2ccc(F)cc2)CC1)C(=O)OCc1ccccc1	> 64	> 64	7	> 64	> 100	22.6		
N#CCN(CCCCN1CCN(C(c2ccc(F)cc2)c2ccc(F)cc2)CC1)C(=O)OCc1ccccc1	11.3	5.9	2.6	7.6	> 100	2.1		
